Reference: ChEMBL document CHEMBL1955771, “VX-322: a novel dual receptor tyrosine kinase inhibitor for the treatment of acute myelogenous leukemia” (J Med Chem, 2012)
pIC50, pKi: −log10 of the molar value.

What was measured:
[1] = tested on: TF-1; assay: cells; settings: Homo sapiens, TF-1, 72 h
Description: Cytotoxicity against human TF1 cells expressing FMS assessed as cell viability after 72 hrs by resazurin dye based fluorescence assay

[2] = tested on: THP-1; assay: cells; settings: Homo sapiens, THP-1, 72 h
Description: Cytotoxicity against human THP1 cells assessed as cell viability after 72 hrs by resazurin dye based fluorescence assay

[3] = target: T1, Tyrosine-protein kinase JAK3 (Homo sapiens, UniProt P52333); assay: Inhibition of Jak3
T1 sequence (P52333 whole entry): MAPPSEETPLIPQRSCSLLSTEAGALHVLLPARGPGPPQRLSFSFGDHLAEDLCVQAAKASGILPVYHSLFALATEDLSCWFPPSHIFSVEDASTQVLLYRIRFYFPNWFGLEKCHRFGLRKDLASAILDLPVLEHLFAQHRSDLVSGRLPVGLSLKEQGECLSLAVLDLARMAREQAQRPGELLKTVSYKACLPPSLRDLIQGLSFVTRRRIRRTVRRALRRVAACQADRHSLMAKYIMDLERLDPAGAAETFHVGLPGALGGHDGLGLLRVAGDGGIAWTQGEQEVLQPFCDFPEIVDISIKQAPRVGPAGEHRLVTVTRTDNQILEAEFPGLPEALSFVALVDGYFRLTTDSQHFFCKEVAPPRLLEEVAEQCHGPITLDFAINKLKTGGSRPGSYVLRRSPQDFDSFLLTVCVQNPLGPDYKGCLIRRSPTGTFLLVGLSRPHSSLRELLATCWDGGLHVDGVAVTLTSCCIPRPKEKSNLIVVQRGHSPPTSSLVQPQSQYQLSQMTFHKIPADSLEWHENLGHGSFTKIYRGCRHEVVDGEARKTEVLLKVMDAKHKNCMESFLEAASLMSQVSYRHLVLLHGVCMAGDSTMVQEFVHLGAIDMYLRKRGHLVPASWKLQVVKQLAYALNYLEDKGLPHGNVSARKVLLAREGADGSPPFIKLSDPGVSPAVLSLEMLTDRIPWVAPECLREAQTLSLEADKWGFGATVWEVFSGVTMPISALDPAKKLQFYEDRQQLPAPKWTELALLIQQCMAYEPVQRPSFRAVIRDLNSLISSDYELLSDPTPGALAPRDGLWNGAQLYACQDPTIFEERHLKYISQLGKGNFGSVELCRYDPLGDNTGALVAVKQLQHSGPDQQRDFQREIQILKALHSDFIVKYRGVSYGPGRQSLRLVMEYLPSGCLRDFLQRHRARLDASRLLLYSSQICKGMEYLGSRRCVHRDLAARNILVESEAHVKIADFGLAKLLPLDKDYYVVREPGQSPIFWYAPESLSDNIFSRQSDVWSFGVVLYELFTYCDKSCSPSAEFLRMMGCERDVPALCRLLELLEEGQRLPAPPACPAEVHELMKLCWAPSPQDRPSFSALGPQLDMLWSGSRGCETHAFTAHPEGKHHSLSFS

[4] = tested on: BaF3; assay: Antitumor activity against mouse BA/F3 cells expressing FLT3-ITD mutant xenografted in BALB/c mouse myeloproliferative model assessed as increase in host survival days at 5 mg/kg, po qd relative to control (reference value: 20 days); format: functional, organism-based; parameters: dose 5 mg/kg
[5] = cells; settings: Homo sapiens, Leukemia cell, 72 h
Description: Cytotoxicity against human primary leukemia cells isolated from acute myeloid leukemia patient expressing wild type FLT3 assessed as cell viability after 72 hrs by luciferase assay

[6] = tested on: MV4-11; assay: Induction of apoptosis in human MV4-11 cells at 100 nM assessed as late apoptotic cells after 24 hrs by annexin V and propidium iodide staining method (reference value: 5.1 %); format: functional
[7] = target: T2, Tyrosine-protein kinase receptor UFO (Homo sapiens, UniProt P30530); assay: Inhibition of AXL
T2 sequence (P30530 whole entry): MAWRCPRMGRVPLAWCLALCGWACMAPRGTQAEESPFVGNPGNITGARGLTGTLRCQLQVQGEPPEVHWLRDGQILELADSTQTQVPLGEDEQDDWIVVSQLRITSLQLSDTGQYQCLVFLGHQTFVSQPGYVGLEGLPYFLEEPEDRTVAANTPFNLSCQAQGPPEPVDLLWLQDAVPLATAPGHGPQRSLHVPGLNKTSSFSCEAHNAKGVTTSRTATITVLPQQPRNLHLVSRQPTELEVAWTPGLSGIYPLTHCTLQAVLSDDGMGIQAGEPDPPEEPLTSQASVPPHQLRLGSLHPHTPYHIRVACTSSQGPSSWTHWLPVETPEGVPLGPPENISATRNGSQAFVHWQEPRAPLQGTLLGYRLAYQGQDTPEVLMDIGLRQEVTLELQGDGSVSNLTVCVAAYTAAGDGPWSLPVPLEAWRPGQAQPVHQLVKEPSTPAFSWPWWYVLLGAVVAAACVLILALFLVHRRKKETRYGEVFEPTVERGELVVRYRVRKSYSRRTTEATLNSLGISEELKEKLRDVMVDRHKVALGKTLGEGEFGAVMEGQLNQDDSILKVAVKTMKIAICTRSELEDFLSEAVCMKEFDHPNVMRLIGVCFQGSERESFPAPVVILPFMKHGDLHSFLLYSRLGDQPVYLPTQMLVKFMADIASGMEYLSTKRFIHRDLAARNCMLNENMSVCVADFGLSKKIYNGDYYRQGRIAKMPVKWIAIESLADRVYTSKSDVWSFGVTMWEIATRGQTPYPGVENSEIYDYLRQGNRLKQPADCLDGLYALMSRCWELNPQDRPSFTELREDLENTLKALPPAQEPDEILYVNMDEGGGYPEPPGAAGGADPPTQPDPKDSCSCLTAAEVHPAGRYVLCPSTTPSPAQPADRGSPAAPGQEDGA

[8] = tested on: MV4-11; assay: Induction of apoptosis in human MV4-11 cells at 100 nM assessed as apoptotic cells after 48 hrs by annexin V and propidium iodide staining method (reference value: 2.1 %); format: functional
[9] = target: Mast/stem cell growth factor receptor Kit (Homo sapiens, UniProt P10721); assay: Inhibition of c-KIT-mediated ERK 1/2 phosphorylation in human TF1 cells at 4 to 12 nM after 1 hr by immunoblot analysis; format: cell-based, TF-1
[10] = organism: Mus musculus; assay: Toxicity in BALB/c mouse assessed as signs of anemia after 100 days; format: organism-based; settings: in vivo, 2400 h
[11] = tested on: MV4-11; assay: cells; settings: Homo sapiens, MV4-11, 72 h
Description: Cytotoxicity against human MV4-11 cells expressing FLT3-ITD mutation assessed as cell viability after 72 hrs by resazurin dye based fluorescence assay

[12] = organism: Mus musculus; assay: Toxicity in BALB/c mouse assessed as signs of neutropenia after 100 days; format: organism-based; settings: in vivo, 2400 h
[13] = tested on: Mus musculus; assay: Antitumor activity against mouse BA/F3 cells expressing FLT3-ITD mutant xenografted in BALB/c mouse myeloproliferative model assessed as reduction of phosphorylated Stat5 level in spleen administered qd for 2 days measured after 8 hrs by immunohistochemistry analysis; format: functional, organism-based; settings: BaF3
[14] = tested on: MV4-11; assay: Induction of apoptosis in human MV4-11 cells at 100 nM assessed as late apoptotic cells after 48 hrs by annexin V and propidium iodide staining method (reference value: 3.4 %); format: functional
[15] = tested on: BaF3; assay: Antitumor activity against mouse BA/F3 cells expressing FLT3-ITD mutant xenografted in BALB/c mouse myeloproliferative model assessed as increase in host survival days at 0.05 mg/kg, po qd relative to control (reference value: 20 days); format: functional, organism-based; parameters: dose 0.05 mg/kg
[16] = target: Receptor-type tyrosine-protein kinase FLT3 (Homo sapiens, UniProt P36888, ITD); assay: Inhibition of FLT3 ITD mutant mediated Stat5 phosphorylation in human MV4-11 cells by immunoblot analysis; format: cell-based
Receptor-type tyrosine-protein kinase FLT3, sequence (P36888 whole entry, looked up, change not shown): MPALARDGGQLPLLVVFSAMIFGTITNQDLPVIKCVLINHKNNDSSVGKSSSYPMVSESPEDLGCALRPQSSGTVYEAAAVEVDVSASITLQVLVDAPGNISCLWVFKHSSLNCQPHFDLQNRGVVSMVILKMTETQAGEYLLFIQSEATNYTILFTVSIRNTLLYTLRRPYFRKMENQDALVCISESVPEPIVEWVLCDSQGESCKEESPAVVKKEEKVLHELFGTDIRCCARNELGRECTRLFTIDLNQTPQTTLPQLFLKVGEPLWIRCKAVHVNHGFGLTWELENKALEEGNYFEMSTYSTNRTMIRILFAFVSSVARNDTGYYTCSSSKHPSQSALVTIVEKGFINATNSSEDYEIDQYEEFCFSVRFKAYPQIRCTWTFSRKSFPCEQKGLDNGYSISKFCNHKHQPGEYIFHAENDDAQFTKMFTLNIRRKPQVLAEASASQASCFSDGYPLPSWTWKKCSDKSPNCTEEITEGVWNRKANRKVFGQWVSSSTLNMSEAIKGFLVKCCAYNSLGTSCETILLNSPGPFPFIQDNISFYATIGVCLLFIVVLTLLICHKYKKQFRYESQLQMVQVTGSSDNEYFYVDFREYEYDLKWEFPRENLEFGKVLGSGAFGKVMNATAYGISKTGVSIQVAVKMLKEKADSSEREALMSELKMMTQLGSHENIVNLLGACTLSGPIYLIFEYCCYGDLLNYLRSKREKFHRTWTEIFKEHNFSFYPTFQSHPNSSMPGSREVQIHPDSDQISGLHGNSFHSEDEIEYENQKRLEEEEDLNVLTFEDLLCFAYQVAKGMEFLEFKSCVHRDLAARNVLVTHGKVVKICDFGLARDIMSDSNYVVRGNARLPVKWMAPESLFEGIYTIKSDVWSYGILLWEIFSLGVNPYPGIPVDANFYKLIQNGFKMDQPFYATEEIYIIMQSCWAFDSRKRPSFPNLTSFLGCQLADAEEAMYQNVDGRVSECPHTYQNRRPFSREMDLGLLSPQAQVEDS

Mast/stem cell growth factor receptor Kit, sequence (P10721 whole entry): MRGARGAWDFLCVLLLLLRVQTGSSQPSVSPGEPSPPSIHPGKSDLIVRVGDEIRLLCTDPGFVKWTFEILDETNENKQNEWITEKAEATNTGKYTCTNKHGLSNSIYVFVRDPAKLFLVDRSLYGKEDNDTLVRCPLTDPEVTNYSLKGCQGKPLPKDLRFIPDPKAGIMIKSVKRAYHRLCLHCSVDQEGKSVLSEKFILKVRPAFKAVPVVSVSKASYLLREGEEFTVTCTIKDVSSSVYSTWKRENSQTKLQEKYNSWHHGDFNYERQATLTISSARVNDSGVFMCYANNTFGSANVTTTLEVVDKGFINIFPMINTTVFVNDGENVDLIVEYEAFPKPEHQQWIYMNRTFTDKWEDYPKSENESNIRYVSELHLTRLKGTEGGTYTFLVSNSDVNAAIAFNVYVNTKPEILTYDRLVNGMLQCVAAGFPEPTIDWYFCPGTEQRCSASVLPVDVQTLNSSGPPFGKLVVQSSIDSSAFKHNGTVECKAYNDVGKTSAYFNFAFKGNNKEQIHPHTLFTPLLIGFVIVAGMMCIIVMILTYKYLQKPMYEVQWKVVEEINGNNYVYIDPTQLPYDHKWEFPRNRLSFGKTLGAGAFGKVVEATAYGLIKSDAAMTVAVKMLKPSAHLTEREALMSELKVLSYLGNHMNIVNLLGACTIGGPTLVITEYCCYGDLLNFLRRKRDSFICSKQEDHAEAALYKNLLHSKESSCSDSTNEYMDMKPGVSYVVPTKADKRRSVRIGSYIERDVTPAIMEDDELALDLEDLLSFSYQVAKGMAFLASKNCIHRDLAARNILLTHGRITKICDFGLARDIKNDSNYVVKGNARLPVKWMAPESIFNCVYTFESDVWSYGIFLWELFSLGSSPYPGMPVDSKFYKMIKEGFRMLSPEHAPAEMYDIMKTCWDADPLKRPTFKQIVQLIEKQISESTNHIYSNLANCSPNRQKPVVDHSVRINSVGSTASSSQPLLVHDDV

Question: With Nc1nc(Nc2ccc([C@H]3CC[C@H](N4CCOCC4)CC3)cc2)nn1-c1ccccn1 as the molecule, how does the pIC50 [1] read?
Answer: Its pIC50 is less than 5.40.

Question: What about the pIC50 [2] of the same molecule?
Answer: The pIC50 was less than 5.40.

Question: And the pKi [3]?
Answer: Its pKi is 6.55.

Question: What about the MSD [4] of the same molecule?
Answer: The MSD was 62 days.

Question: What about the pIC50 [5] of the same molecule?
Answer: Its pIC50 is 7.70.

Question: And the Activity [6]?
Answer: The Activity was 32.5%.

Question: And the pKi [7]?
Answer: The pKi was 7.40.

Question: And the Activity [8]?
Answer: The Activity was 26.3%.

Question: And the pIC50 [9]?
Answer: The pIC50 was 8.40.

Question: What about the Activity [10] of the same molecule?
Answer: The Activity was “Non-toxic”.

Question: And the pIC50 [11]?
Answer: Its pIC50 is 9.70.

Question: And the Activity [12]?
Answer: The Activity was “Non-toxic”.

Question: And the Activity [13]?
Answer: The Activity was “Dose-dependent effect”.

Question: And the Activity [14]?
Answer: Its Activity is 42.8%.

Question: And the MSD [15]?
Answer: Its MSD is 24 days.

Question: What about the pIC50 [16] of the same molecule?
Answer: The pIC50 was 8.89.
